We go through 1 compound from publication PMC4873255 (Bioorganic & medicinal chemistry letters, 2015).

For orientation: IC50 means the concentration that gives 50% inhibition. Broadly, the Ki is a dissociation constant, usually derived from enzyme kinetics or from competition with a known ligand. Read a high Ki as weaker binding.

The target in assay [1] is rat μ-opioid receptors (rMOR) (Rattus norvegicus, UniProt P33535). Briefly: biochemical. Type of assay: binding.
Assay [2] concerns the target human δ opioid receptors (hDOR) (Homo sapiens, UniProt P41143). Put plainly: biochemical. Format: binding.
Assay [3] has as its target δ opioid receptors (Mus musculus, UniProt P32300). Briefly: cell-based.
For assay [4], the target named is μ opioid receptors (Cavia porcellus, UniProt P97266). Briefly: cell-based. Also on record: species or system guinea pig.
μ opioid receptors, sequence (P97266 whole entry, looked up): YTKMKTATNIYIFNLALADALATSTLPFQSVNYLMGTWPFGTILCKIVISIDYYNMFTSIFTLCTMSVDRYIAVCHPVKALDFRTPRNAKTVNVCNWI

human δ opioid receptors (hDOR), sequence (P41143 whole entry): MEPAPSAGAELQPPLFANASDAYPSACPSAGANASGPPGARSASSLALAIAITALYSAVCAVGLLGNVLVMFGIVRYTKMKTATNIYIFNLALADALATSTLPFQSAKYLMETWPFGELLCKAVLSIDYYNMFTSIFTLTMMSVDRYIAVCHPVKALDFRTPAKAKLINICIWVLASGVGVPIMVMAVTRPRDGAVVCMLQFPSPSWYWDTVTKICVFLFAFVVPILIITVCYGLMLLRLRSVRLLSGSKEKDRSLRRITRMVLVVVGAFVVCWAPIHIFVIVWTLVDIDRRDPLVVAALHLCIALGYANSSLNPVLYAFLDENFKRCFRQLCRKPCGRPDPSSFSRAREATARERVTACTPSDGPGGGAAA
rat μ-opioid receptors (rMOR), sequence (P33535 whole entry): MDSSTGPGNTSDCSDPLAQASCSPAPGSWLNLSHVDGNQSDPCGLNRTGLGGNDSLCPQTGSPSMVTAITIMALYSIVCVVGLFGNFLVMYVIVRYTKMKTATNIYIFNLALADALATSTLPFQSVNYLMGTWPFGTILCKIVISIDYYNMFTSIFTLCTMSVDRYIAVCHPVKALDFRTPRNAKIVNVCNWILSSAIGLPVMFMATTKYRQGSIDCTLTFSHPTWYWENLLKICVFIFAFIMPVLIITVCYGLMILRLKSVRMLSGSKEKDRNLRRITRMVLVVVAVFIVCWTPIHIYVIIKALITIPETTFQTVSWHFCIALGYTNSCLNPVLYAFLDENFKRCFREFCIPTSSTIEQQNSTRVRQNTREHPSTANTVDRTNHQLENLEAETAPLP
δ opioid receptors, sequence (P32300 whole entry): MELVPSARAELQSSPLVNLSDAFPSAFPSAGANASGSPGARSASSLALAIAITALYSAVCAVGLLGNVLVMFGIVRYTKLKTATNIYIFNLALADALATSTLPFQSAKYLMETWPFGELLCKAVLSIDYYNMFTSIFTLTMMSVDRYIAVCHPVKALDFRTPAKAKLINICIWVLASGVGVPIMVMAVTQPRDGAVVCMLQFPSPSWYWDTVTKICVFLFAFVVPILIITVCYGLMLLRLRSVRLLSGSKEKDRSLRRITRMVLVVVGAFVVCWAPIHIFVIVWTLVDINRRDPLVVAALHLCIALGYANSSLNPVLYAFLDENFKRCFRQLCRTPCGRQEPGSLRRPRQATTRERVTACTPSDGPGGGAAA

Consider `CCC(=O)N(CC1CCCCN1Cc1ccc2c(c1)CCC[C@H]2N(C(=O)CCNC(=O)[C@H](Cc1ccccc1)NC(=O)CNC(=O)[C@@H](C)NC(=O)[C@@H](N)Cc1c(C)cc(O)cc1C)C(=O)CCNC(=O)[C@H](Cc1ccccc1)NC(=O)CNC(=O)[C@@H](C)NC(=O)[C@@H](N)Cc1c(C)cc(O)cc1C)c1ccc(F)c(F)c1` (stereo partly drawn) [Compound 10], for which the IC50 is 1.29 nM in assay [1], 1.41 nM in assay [2], 6.1 ± 1.5 nM in assay [3] and 2.1 ± 0.45 nM in assay [4]. For the same compound, the Ki in assay [1] and in assay [2] was 0.6 nM throughout.
